# In patent publication US8926966B1 (Regents of the University of California, priority 1990, dated 2015):
# Tested on: IDDM associated autoantibodies in sera
# Experiment: ELISA of sera on plate-bound human GAD65 peptides
# Type: binding
# Conditions: for number of IDDM (at risk, pre-IDDM, at onset) patients positive (X) for the peptide (unlabelled sum line): IDDM sera of Table 11
# Procedure: Patient sera and most control sera were those used in a previous study (Kaufman, et al., J. Clin. Investigation, supra) All samples were coded and tested in a blind manner. Peptides were synthesized using an automatic instrument (Applied Biosystems, Foster City, Calif.) and standard conditions. Peptides were dissolved in 60 mM sodium bicarbonate buffer (pH 9.6) at 20 ug/ml and 100 ul of each was added to duplicated wells of a 96 well Nunc-Immuno Plate. Peptides were allowed to bind at 4° C. overnight. The plates were then washed three times with PBS+0.1% Tween 20 (wash buffer), after which the plates were pre-absorbed with 3% BSA in sodium bicarbonate buffer for 0.5 hours at 37° C., or at room temperature overnight. The plates were then washed 5 times with the above wash buffer. 100 ul of serum at a 1/300 dilution in PBS+0.1% Tween 20 and 1% BSA was added to each well and antibodies were allowed to bind for 1 hour at 37° C. The plates were washed 5 times with wash buffer. 100 ul of a 1/600 dilution of HRP-goat anti-human IgG (BRL, Gaithersberg, Md.) was added to each well and allowed to bind for 1 hour at 37° C. The plates were then washed 7 times and 100 ul of substrate buffer was added to each well for 30 minutes at room temperature. The color development was measured at 410 nm using an ELISA plate reader (ICN, Biomedicals, Costa Mesa, Calif.). Positive sera were defined as: OD410 of the sample/negative control ≧3.0.
# [1] = IDDM At Onset serum 048, 1/300 dilution
# [2] = IDDM At Onset serum 291, 1/300 dilution
# [3] = IDDM At Onset serum 705, 1/300 dilution
# [4] = IDDM At Onset serum S.H., 1/300 dilution
# [5] = Pre-IDDM serum 723, 1/300 dilution
# [6] = Pre-IDDM serum J.B. (2), 1/300 dilution
# [7] = Pre-IDDM serum P.T. (1), 1/300 dilution
# [8] = Pre-IDDM serum P.T. (2), 1/300 dilution
# [9] = Pre-IDDM serum R.S. (2), 1/300 dilution
# [10] = IDDM At Risk serum 052, 1/300 dilution
# [11] = IDDM At Risk serum L.I., 1/300 dilution
Sequence,immunoreactivity of serum with GAD65 peptide [1],immunoreactivity of serum with GAD65 peptide [2],immunoreactivity of serum with GAD65 peptide [3],"number of IDDM (at risk, pre-IDDM, at onset) patients positive (X) for the peptide (unlabelled sum line)",immunoreactivity of serum with GAD65 peptide [6],immunoreactivity of serum with GAD65 peptide [8],immunoreactivity of serum with GAD65 peptide [10],also measured
GLLMSRKHKLSGVERANS [Peptide 25],X (X = positive for immunoreactivity as defined by 00/background^3.0),X (X = positive for immunoreactivity as defined by 00/background^3.0),X (X = positive for immunoreactivity as defined by 00/background^3.0),8,b (b = borderline response (00/background ?2.5-2.9).),X (X = positive for immunoreactivity as defined by 00/background^3.0),–,"controls whose sera recognized the peptide (13 control sera): 1 out of 13; number of control sera positive (X) for the peptide (unlabelled sum line) (13 control sera): 1; immunoreactivity of serum with GAD65 peptide [4]: X (X = positive for immunoreactivity as defined by 00/background^3.0); immunoreactivity of serum with GAD65 peptide (IDDM At Risk serum 356, 1/300 dilution): X (X = positive for immunoreactivity as defined by 00/background^3.0); immunoreactivity of serum with GAD65 peptide (IDDM At Risk serum 825, 1/300 dilution): b (b = borderline response (00/background ?2.5-2.9).); immunoreactivity of serum with GAD65 peptide [5]: X (X = positive for immunoreactivity as defined by 00/background^3.0); immunoreactivity of serum with GAD65 peptide [7]: b (b = borderline response (00/background ?2.5-2.9).); immunoreactivity of serum with GAD65 peptide (Pre-IDDM serum R.S. (1), 1/300 dilution): X (X = positive for immunoreactivity as defined by 00/background^3.0); immunoreactivity of serum with GAD65 peptide [9]: X (X = positive for immunoreactivity as defined by 00/background^3.0); immunoreactivity of serum with GAD65 peptide (control serum FA12, 1/300 dilution): b (b = borderline response (00/background ?2.5-2.9).); immunoreactivity of serum with GAD65 peptide (control serum S.M., 1/300 dilution): X (X = positive for immunoreactivity as defined by 00/background^3.0); patients whose sera recognized the peptide (patients previously shown to be 64K positive): 6/8"
GSGDSENPGTARAWCQVAQKFTG [Peptide 2],–,–,–,–,–,–,b (b = borderline response (00/background ?2.5-2.9).),immunoreactivity of serum with GAD65 peptide [4]: b (b = borderline response (00/background ?2.5-2.9).)
HATDLLPACDGERPTLAFLQ [Peptide 7],–,b (b = borderline response (00/background ?2.5-2.9).),–,–,b (b = borderline response (00/background ?2.5-2.9).),b (b = borderline response (00/background ?2.5-2.9).),–,"immunoreactivity of serum with GAD65 peptide (Pre-IDDM serum J.B. (1), 1/300 dilution): b (b = borderline response (00/background ?2.5-2.9).)"
KGTTGFEAHVDKCLELAEYLYN [Peptide 31],–,–,–,–,–,b (b = borderline response (00/background ?2.5-2.9).),b (b = borderline response (00/background ?2.5-2.9).),immunoreactivity of serum with GAD65 peptide [7]: b (b = borderline response (00/background ?2.5-2.9).)
KHYDLSYDTGDKALQCGRHV [Peptide 29],X (X = positive for immunoreactivity as defined by 00/background^3.0),–,X (X = positive for immunoreactivity as defined by 00/background^3.0),4,b (b = borderline response (00/background ?2.5-2.9).),X (X = positive for immunoreactivity as defined by 00/background^3.0),X (X = positive for immunoreactivity as defined by 00/background^3.0),immunoreactivity of serum with GAD65 peptide [7]: X (X = positive for immunoreactivity as defined by 00/background^3.0)
KPCSCSKVDVNYAFLHATDL [Peptide 6],X (X = positive for immunoreactivity as defined by 00/background^3.0),–,–,2,–,–,X (X = positive for immunoreactivity as defined by 00/background^3.0),immunoreactivity of serum with GAD65 peptide [9]: b (b = borderline response (00/background ?2.5-2.9).)
LAFLQDVMNILLQYVVKSFDRS [Peptide 8],–,–,X (X = positive for immunoreactivity as defined by 00/background^3.0),2,b (b = borderline response (00/background ?2.5-2.9).),b (b = borderline response (00/background ?2.5-2.9).),–,immunoreactivity of serum with GAD65 peptide [11]: X (X = positive for immunoreactivity as defined by 00/background^3.0); immunoreactivity of serum with GAD65 peptide [9]: b (b = borderline response (00/background ?2.5-2.9).)
LEAKQKGFVPFLVSATAGTT [Peptide 22],–,X (X = positive for immunoreactivity as defined by 00/background^3.0),X (X = positive for immunoreactivity as defined by 00/background^3.0),2,b (b = borderline response (00/background ?2.5-2.9).),b (b = borderline response (00/background ?2.5-2.9).),–,–
LLYGDAEKPAESGGSQPPRA [Peptide 4],–,X (X = positive for immunoreactivity as defined by 00/background^3.0),–,–,b (b = borderline response (00/background ?2.5-2.9).),b (b = borderline response (00/background ?2.5-2.9).),–,–
QKFTGGIGIGNKLCALLYGD [Peptide 3],X (X = positive for immunoreactivity as defined by 00/background^3.0),b (b = borderline response (00/background ?2.5-2.9).),–,–,–,–,–,immunoreactivity of serum with GAD65 peptide [4]: X (X = positive for immunoreactivity as defined by 00/background^3.0); immunoreactivity of serum with GAD65 peptide [11]: b (b = borderline response (00/background ?2.5-2.9).); immunoreactivity of serum with GAD65 peptide [5]: X (X = positive for immunoreactivity as defined by 00/background^3.0)
QNCNQMHASYLFQQDKHYDL [Peptide 28],–,–,–,–,–,–,b (b = borderline response (00/background ?2.5-2.9).),–
